How the values were obtained:
[1] = Chemical stability at 40° C./75% RH, hydroxytyrosol content by HPLC; assay type: physicochemical; settings: double-layer polyethylene bags; for content of hydroxytyrosol, Day 0: 0 d, initial content set as 100%; for content of hydroxytyrosol, Day 14: 14 d; for content of hydroxytyrosol, Day 14 / content of hydroxytyrosol, Day 30: % of initial content; for content of hydroxytyrosol, Day 30: 30 d
Method: An appropriate amount of powder sample was put in an accelerated stability chamber at 40° C./75% RH with the packaging condition of double-layer polyethylene bags, and the sample was taken at 0 d, 14 d, and 30 d. The content of hydroxytyrosol was determined by high performance liquid chromatography (the content was calculated by external standard method).

[2] = Hygroscopicity by dynamic moisture sorption (DVS); assay type: physicochemical; settings: 80% relative humidity, 25° C.
Method: About 5 mg of powder sample was weighed and put in a dynamic moisture sorption instrument (DVS). The relative humidity range was set at from 0 to 95%, and the temperature was set at 25° C. The weight change of the samples under different environmental humidity conditions were recorded and used to compare the hygroscopicity of the material.

Compound	content of hydroxytyrosol, Day 0 [1]	content of hydroxytyrosol, Day 14 [1]	content of hydroxytyrosol, Day 30 [1]	content of hydroxytyrosol, Day 30 ([1]; listed as hydroxytyrosol itself)	hygroscopicity (weight change) [2]	hygroscopicity (in words) [2]
OCCc1ccc(O)c(O)c1 [Hydroxytyrosol itself, Hydroxytyrosol]	100.0%	98.8%	92.3%	92.3%	16.9%	
co-crystal of hydroxytyrosol and nicotinamide [Example 1]	100.0%	99.7%			0.39%	basically non-hygroscopic

From patent publication US20240166604A1, “HYDROXYTYROSOL NICOTINAMIDE EUTECTIC CRYSTAL, AND PREPARATION METHOD THEREFOR AND COMPOSITION THEREOF” (COCRYSTAL TECHNOLOGY (JIAXING) CO., LTD., priority 2021, published 2024)
